Source: patent US20190010139A1 (priority 2015, published 2019)

Test system: NL-RLuc virus
Assay: Inhibition of HIV replication (NL-RLuc luciferase reporter virus in MT-2 cells)
Type: cell-based
Settings: Human immunodeficiency virus 1, MT2, 120 h, read-out: Activity
From the text: Inhibition of HIV Replication:
A recombinant NL-RLuc proviral clone was constructed in which a section of the nef gene from NL4-3 was replaced with the Renilla Luciferase gene. This virus is fully infectious and can undergo multiple cycles of replication in cell culture. In addition, the luciferous reporter provides a simple and easy method for quantitating the extent of virus growth and consequently, the antiviral activity of test compounds. The plasmid pNLRLuc contains the proviral NL-Rluc DNA cloned into pUC 18 at the PvuII site. The NL-RLuc virus was prepared by transfection of 293T cells with the plasmid pNLRLuc. Transfections were performed using the LipofectAMINE PLUS kit from Invitrogen (Carlsbad, Calif.) according to the manufacturer and the virus generated was titered in MT-2 cells. For susceptibility analyses, the titrated virus was used to infect MT-2 cells in the presence of compound, and after 5 days of incubation, cells were processed and quantitated for virus growth by the amount of expressed luciferase. Assay media was RPMI 1640 supplemented with 10% heat inactivated fetal bovine serum (FBS), 100 units/ml penicillin G/100 units/ml streptomycin, 10 mM HEPES buffer pH 7.55 and 2 mM L-glutamine. The results from at least 2 experiments were used to calculate the EC50 values. Luciferase was quantitated using the Dual Luciferase kit from Promega (Madison, Wis.). Susceptibility of viruses to compounds was determined by incubation in the presence of serial dilutions of the compound. The 50% effective concentration (EC50) was calculated by using the exponential form of the median effect equation where (Fa)=1/[1+(ED50/drug conc.)^m](Johnson V A, Byington R T. Infectivity Assay. In Techniques in HIV Research. ed. Aldovini A, Walker B D. 71-76. New York: Stockton Press.1990). Activity equal to A refers to a compound having an EC50≤100 nM, while B and C denote compounds having an EC50 between 100 nM and 1 uM (B) or >1 uM (C).

SMILES	EC50
Cc1nc(C)c([C@H](OC(C)(C)C)C(=O)O)c(N2CCC3(CCCC3)CC2)c1-c1ccc2c(c1)CCN(Cc1ccccc1F)C2 [Example 26, (S)-2-(tert-Butoxy)-2-(5-(2-(2-fluorobenzyl)-1,2,3,4-tetrahydroisoquinolin-6-yl)-2,6-dimethyl-4-(8-azaspiro[4.5]decan-8-yl)pyridin-3-yl)acetic acid]	< 0.1 µM
Cc1nc(CN2CCCCC2)c(-c2ccc(OCCc3ccc(F)cc3)cc2)c(N2CCC3(CCC3)CC2)c1[C@H](OC(C)(C)C)C(=O)O [Example 53, (S)-2-(tert-Butoxy)-2-(5-(4-(4-fluorophenethoxy)phenyl)-2-methyl-6-(piperidin-1-ylmethyl)-4-(7-azaspiro[3.5]nonan-7-yl)pyridin-3-yl)acetic acid]	< 0.1 µM
Cc1nc(C)c([C@H](OC(C)(C)C)C(=O)O)c(N2CCC3(CCNC3)CC2)c1-c1ccc(OCCc2ccc(F)cc2)cc1 [Example 68, (S)-2-(tert-Butoxy)-2-(5-(4-(4-fluorophenethoxy)phenyl)-2,6-dimethyl-4-(2,8-diazaspiro[4.5]decan-8-yl)pyridin-3-yl)acetic acid]	0.1 to 1 µM
Cc1nc(COCC2CCOCC2)c(-c2ccc(OCCc3ccc(F)cc3)cc2)c(N2CCC3(CCC3)CC2)c1[C@H](OC(C)(C)C)C(=O)O [Example 51, (S)-2-(tert-Butoxy)-2-(5-(4-(4-fluorophenethoxy)phenyl)-2-methyl-4-(7-azaspiro[3.5]nonan-7-yl)-6-(((tetrahydro-2H-pyran-4-yl)methoxy)methyl)pyridin-3-yl)acetic acid]	< 0.1 µM
Cc1nc(C)c([C@H](OC(C)(C)C)C(=O)O)c(N2CCC3(CCCC3)CC2)c1-c1ccc(C(=O)NCc2ccccc2)c(F)c1 [Example 24, (S)-2-(5-(4-(Benzylcarbamoyl)-3-fluorophenyl)-2,6-dimethyl-4-(8-azaspiro[4.5]decan-8-yl)pyridin-3-yl)-2-(tert-butoxy)acetic acid]	< 0.1 µM
Cc1nc(C)c([C@H](OC(C)(C)C)C(=O)O)c(N2CCC3(CCOC3)CC2)c1-c1ccc(OCCc2ccc(F)cc2)cc1 [Example 67, (S)-2-(tert-Butoxy)-2-(5-(4-(4-fluorophenethoxy)phenyl)-2,6-dimethyl-4-(2-oxa-8-azaspiro[4.5]decan-8-yl)pyridin-3-yl)acetic acid]	< 0.1 µM
Cc1nc(C)c([C@H](OC(C)(C)C)C(=O)O)c(N2CCC3(CCCC3)C2)c1-c1ccc(OCCc2ccc(F)cc2)cc1 [Example 14, (S)-2-(tert-Butoxy)-2-(5-(4-(4-fluorophenethoxy)phenyl)-2,6-dimethyl-4-(2-azaspiro[4.4]nonan-2-yl)pyridin-3-yl)acetic acid]	< 0.1 µM
Cc1nc(C)c([C@H](OC(C)(C)C)C(=O)O)c(N2CC3CCCC3C2)c1-c1ccc(OCCc2ccc(F)cc2)cc1 (some centres unmarked) [Example 3]	< 0.1 µM
COc1cc(-c2c(C)nc(C)c([C@H](OC(C)(C)C)C(=O)O)c2N2CCC3(CCC3)CC2)ccc1C(=O)NCc1ccccc1 [Example 32, (S)-2-(5-(4-(Benzylcarbamoyl)-3-methoxyphenyl)-2,6-dimethyl-4-(7-azaspiro[3.5]nonan-7-yl)pyridin-3-yl)-2-(tert-butoxy)acetic acid]	< 0.1 µM
Cc1nc(C)c([C@H](OC(C)(C)C)C(=O)O)c(N2CCCC3(CCCC3)C2)c1-c1ccc(OCCc2ccc(F)cc2)cc1 [Example 18, (S)-2-(tert-Butoxy)-2-(5-(4-(4-fluorophenethoxy)phenyl)-2,6-dimethyl-4-(7-azaspiro[4.5]decan-7-yl)pyridin-3-yl)acetic acid]	0.1 to 1 µM
Cc1nc(C)c([C@H](OC(C)(C)C)C(=O)O)c(N2CC[C@H]3CCCC[C@@H]3C2)c1-c1ccc(OCCc2ccc(F)cc2)cc1 [Example 12, (S)-2-(tert-Butoxy)-2-(5-(4-(4-fluorophenethoxy)phenyl)-2,6-dimethyl-4-((4aR,8aS)-octahydroisoquinolin-2(H)-yl)pyridin-3-yl)acetic acid]	< 0.1 µM
Cc1cccc(F)c1CN1CCc2cc(-c3c(C)nc(C)c([C@H](OC(C)(C)C)C(=O)O)c3N3CCC4(CCC4)CC3)ccc2C1 [Example 34, (S)-2-(tert-Butoxy)-2-(5-(2-(2-fluoro-6-methylbenzyl)-1,2,3,4-tetrahydroisoquinolin-6-yl)-2,6-dimethyl-4-(7-azaspiro[3.5]nonan-7-yl)pyridin-3-yl)acetic acid]	< 0.1 µM
Cc1nc(C)c([C@H](OC(C)(C)C)C(=O)O)c(N2CCC3(CCC3)CC2)c1-c1ccc(OCC(C)(C)c2ccc(F)cc2)cc1 [Example 28, (S)-2-(tert-butoxy)-2-(5-(4-(2-(4-fluorophenyl)-2-methylpropoxy)phenyl)-2,6-dimethyl-4-(7-azaspiro[3.5]nonan-7-yl)pyridin-3-yl)acetic acid]	< 0.1 µM
Cc1nc(C)c([C@H](OC(C)(C)C)C(=O)O)c(N2CCC3(CC2)CC3(F)F)c1-c1ccc(OCCc2ccc(F)cc2)cc1 [Example 70, (S)-2-(tert-Butoxy)-2-(4-(1,1-difluoro-6-azaspiro[2.5]octan-6-yl)-5-(4-(4-fluorophenethoxy)phenyl)-2,6-dimethylpyridin-3-yl)acetic acid]	< 0.1 µM
Cc1nc(C)c([C@H](OC(C)(C)C)C(=O)O)c(N2CCC3(CCCCCC3)C2)c1-c1ccc(C(=O)NCc2ccccc2)cc1 [Example 65, (S)-2-(5-(4-(Benzylcarbamoyl)phenyl)-2,6-dimethyl-4-(2-azaspiro[4.6]undecan-2-yl)pyridin-3-yl)-2-(tert-butoxy) acetic acid]	< 0.1 µM
Cc1nc(C)c([C@H](OC(C)(C)C)C(=O)O)c(N2CC3C(C2)C3(C)C)c1-c1ccc(C(=O)NCc2ccccc2)cc1 (stereo partly drawn) [Example 9, (2S)-2-(5-(4-(Benzylcarbamoyl)phenyl)-4-(6,6-dimethyl-3-azabicyclo[3.1.0]hexan-3-yl)-2,6-dimethylpyridin-3-yl)-2-(tert-butoxy)acetic acid]	< 0.1 µM
Cc1ccc(CN2CCc3cc(-c4c(C)nc(C)c([C@H](OC(C)(C)C)C(=O)O)c4N4CCC5(CCC5)CC4)ccc3C2)c(F)c1 [Example 37, (S)-2-(tert-Butoxy)-2-(5-(2-(2-fluoro-4-methylbenzyl)-1,2,3,4-tetrahydroisoquinolin-6-yl)-2,6-dimethyl-4-(7-azaspiro[3.5]nonan-7-yl)pyridin-3-yl)acetic acid]	< 0.1 µM
Cc1nc(C)c([C@H](OC(C)(C)C)C(=O)O)c(N2CCC3(CCCCC3)C2)c1-c1ccc(C(=O)NCc2ccccc2)cc1 [Example 63, (S)-2-(5-(4-(Benzylcarbamoyl)phenyl)-2,6-dimethyl-4-(2-azaspiro[4.5]decan-2-yl)pyridin-3-yl)-2-(tert-butoxy)acetic acid]	< 0.1 µM
Cc1nc(CN(C)C2CCOCC2)c(-c2ccc(OCCc3ccc(F)cc3)cc2)c(N2CCC3(CCC3)CC2)c1[C@H](OC(C)(C)C)C(=O)O [Example 50, (S)-2-(tert-Butoxy)-2-(5-(4-(4-fluorophenethoxy)phenyl)-2-methyl-6-((methyl(tetrahydro-2H-pyran-4-yl)amino)methyl)-4-(7-azaspiro[3.5]nonan-7-yl)pyridin-3-yl)acetic acid]	< 0.1 µM
CCOCc1nc(C)c([C@H](OC(C)(C)C)C(=O)O)c(N2CCC3(CCC3)CC2)c1-c1ccc(OCCc2ccc(F)cc2)cc1 [Example 41, (S)-2-(tert-Butoxy)-2-(6-(ethoxymethyl)-5-(4-(4-fluorophenethoxy)phenyl)-2-methyl-4-(7-azaspiro[3.5]nonan-7-yl)pyridin-3-yl)acetic acid]	< 0.1 µM
Cc1nc(C)c([C@H](OC(C)(C)C)C(=O)O)c(N2CCC3(CCCCC3)CC2)c1-c1ccc(OCCc2ccc(F)cc2)cc1 [Example 60, (S)-2-(tert-Butoxy)-2-(5-(4-(4-fluorophenethoxy)phenyl)-2,6-dimethyl-4-(3-azaspiro[5.5]undecan-3-yl)pyridin-3-yl)acetic acid]	< 0.1 µM
Cc1nc(C)c([C@H](OC(C)(C)C)C(=O)O)c(N2CCC3(CCC3)CC2)c1-c1ccc(C(=O)NCc2ccccc2)c(F)c1 [Example 31, (S)-2-(5-(4-(Benzylcarbamoyl)-3-fluorophenyl)-2,6-dimethyl-4-(7-azaspiro[3.5]nonan-7-yl)pyridin-3-yl)-2-(tert-butoxy)acetic acid]	< 0.1 µM

Same assay, conditions: Human immunodeficiency virus 1, MT2, 120 h, read-out: EC50 μM

SMILES	EC50
Cc1nc(C)c([C@H](OC(C)(C)C)C(=O)O)c(N2CCc3ccccc3C2)c1-c1ccc(OCCc2ccc(F)cc2)cc1 [Example 2, (S)-2-(tert-Butoxy)-2-(4-(3,4-dihydroisoquinolin-2(1H)-yl)-5-(4-(4-fluorophenethoxy)phenyl)-2,6-dimethylpyridin-3-yl)acetic acid]	0.036 µM
Cc1nc(C)c([C@H](OC(C)(C)C)C(=O)O)c(N2CCC3(CCNC3)CC2)c1-c1ccc(OCCc2ccc(F)cc2)cc1 [Example 68, (S)-2-(tert-Butoxy)-2-(5-(4-(4-fluorophenethoxy)phenyl)-2,6-dimethyl-4-(2,8-diazaspiro[4.5]decan-8-yl)pyridin-3-yl)acetic acid]	0.731 µM
Cc1nc(C)c([C@H](OC(C)(C)C)C(=O)O)c(N2CCCC3(CCCC3)C2)c1-c1ccc(OCCc2ccc(F)cc2)cc1 [Example 18, (S)-2-(tert-Butoxy)-2-(5-(4-(4-fluorophenethoxy)phenyl)-2,6-dimethyl-4-(7-azaspiro[4.5]decan-7-yl)pyridin-3-yl)acetic acid]	0.475 µM
Cc1nc(C)c([C@H](OC(C)(C)C)C(=O)O)c(N2CC3C(C2)C3(C)C)c1-c1ccc(C(=O)NCc2ccccc2)cc1 (stereo partly drawn) [Example 9, (2S)-2-(5-(4-(Benzylcarbamoyl)phenyl)-4-(6,6-dimethyl-3-azabicyclo[3.1.0]hexan-3-yl)-2,6-dimethylpyridin-3-yl)-2-(tert-butoxy)acetic acid]	0.083 µM
